Measurements taken from publication PMC7308271, “Discovery of a new class of orthosteric antagonists with nanomolar potency at extrasynaptic GABAA receptors” (Scientific Reports, 2020).

How the values were obtained:
[1] = target: T1, human α4β1δ receptors in δ-HEK cells (Homo sapiens, UniProt P18505+P48169); experiment: Whole-cell patch-clamp electrophysiology, kinetic studies of GABA activation after 018 pre-application; type: cell-based
T1 construct: expressed in transfected cells; host or cells: δ-HEK (HEK293 Flp-In stably expressing human δ), transiently transfected with α4 and β1 1:1
T1 sequence (P48169 36-554): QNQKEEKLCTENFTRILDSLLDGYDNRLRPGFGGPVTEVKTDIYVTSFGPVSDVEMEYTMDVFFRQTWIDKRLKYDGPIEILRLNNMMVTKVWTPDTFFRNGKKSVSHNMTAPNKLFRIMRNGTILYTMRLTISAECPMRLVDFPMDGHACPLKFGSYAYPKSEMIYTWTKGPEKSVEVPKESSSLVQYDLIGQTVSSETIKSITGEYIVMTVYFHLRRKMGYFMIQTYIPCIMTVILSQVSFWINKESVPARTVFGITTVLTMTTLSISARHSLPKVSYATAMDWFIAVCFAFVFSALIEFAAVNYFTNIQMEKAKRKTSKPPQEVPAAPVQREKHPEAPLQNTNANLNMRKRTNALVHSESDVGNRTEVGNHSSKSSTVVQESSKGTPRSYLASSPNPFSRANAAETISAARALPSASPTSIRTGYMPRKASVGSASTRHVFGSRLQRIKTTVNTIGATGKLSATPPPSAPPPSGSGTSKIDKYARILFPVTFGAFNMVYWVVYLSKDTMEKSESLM
T1 sequence (P18505 26-474): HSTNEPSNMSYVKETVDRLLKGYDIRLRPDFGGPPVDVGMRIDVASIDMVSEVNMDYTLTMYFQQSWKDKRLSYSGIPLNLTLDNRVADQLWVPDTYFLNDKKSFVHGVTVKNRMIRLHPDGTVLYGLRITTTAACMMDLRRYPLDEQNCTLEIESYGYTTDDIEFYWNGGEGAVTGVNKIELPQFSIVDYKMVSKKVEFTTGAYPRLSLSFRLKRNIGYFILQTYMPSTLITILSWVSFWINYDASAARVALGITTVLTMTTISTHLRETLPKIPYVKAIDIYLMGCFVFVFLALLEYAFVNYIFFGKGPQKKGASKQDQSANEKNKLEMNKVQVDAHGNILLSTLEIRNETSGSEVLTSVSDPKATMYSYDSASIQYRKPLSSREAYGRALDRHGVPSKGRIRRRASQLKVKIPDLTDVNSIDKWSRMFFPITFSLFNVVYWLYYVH
T1 sequence (O14764 25-452 partner): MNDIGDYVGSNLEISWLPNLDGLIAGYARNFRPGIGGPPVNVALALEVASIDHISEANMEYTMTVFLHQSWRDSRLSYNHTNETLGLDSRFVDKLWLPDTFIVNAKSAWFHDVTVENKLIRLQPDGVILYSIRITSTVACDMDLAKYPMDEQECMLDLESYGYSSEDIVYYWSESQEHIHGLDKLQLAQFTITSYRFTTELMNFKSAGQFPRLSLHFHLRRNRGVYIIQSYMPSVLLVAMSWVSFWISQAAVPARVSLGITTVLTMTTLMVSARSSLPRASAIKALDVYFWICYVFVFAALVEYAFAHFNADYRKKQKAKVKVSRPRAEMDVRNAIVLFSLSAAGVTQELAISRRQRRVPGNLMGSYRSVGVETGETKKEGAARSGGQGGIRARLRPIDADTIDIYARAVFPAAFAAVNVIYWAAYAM
Description: δ-HEK cells transiently expressing human α4β1δ receptors were seeded in 35 mm Petri dishes the day before experiment and used for recordings in a similar was as previously reported. On the day of experiment the dishes were transferred to the stage of an Axiovert 10 microscope (Zeiss, Germany), and the culture medium was exchanged for artificial balanced salt solution (ABBS) at room temperature (20−24 °C). The ABSS solution contained the following (in mM): NaCl 140, KCl 3.5, Na2HPO4 1.25, MgSO4 2, CaCl2 2, glucose 10, and HEPES 10; pH 7.35. The cells were viewed at 200× magnification, and cells containing green fluorescent protein were visualized with UV light from an HBO 50 lamp (Zeiss, Germany). The cells were approached with micropipettes of 1.2−3.3 MΩ resistance manufactured from 1.5 mm OD glass (World Precision Instruments, Sarasota, Florida) on a microelectrode puller, model PP-830 (Narishige, Tokyo, Japan). The intrapipette solution contained the following (in mM): KCl 140, MgCl2 1, CaCl2 1, EGTA 10, MgATP 2, and HEPES 10; pH 7.3. Standard patch-clamp techniques in voltage clamp mode[44] were used to record from cells in the whole-cell configuration using an EPC-9 amplifier (HEKA, Lambrecht, Germany). A clamping potential of −60 mV was used, and series resistance was 80% compensated. Whole-cell currents were recorded and subsequently analyzed using Pulse and PulseFit software (HEKA, Lambrecht, Germany).
ABSS solution containing the compounds were applied using two VC3–8xP pressurized application systems feeding into a sixteen-barreled perfusion pipette (ALA Scientific Instruments Inc., Farmingdale New York, USA) ending approximately 100 μm from the recorded cell. Between the compound applications, compound-free ABSS was applied from one of the barrels in order to quickly remove the compounds from the cell. […] The cells were left to recover for 1 min before the next application.
Current relaxations were fitted to a single or biexponential equation using a Simplex optimization algorithm (PulseFit; HEKA, Lambrecht, Germany). I(t)=I0+I1exp−t/τ1+I2exp−t/τ2
With I denoting the currents at a time t and τ1 and τ2 the time constants. All curve-fitting results were carefully inspected visually. In some cases, the current relaxations were fitted to both a mono- and a biexponential function and an F-test was applied to the residual sum of squares to determine the appropriateness of using a second component: F=(SSA−SSB)dfB/SSB(dfA−dfB)=(RMSA2−RMSB2)dfB/RMSB2(dfA−dfB) where SS and RMS are the sum of squares and root mean square deviation between fit and data, respectively. A and B refer to the single and biexponential fit, respectively. df represents the degree of freedom for each fit. Time constants were given as medians followed by the 25–75% percentile in square brackets.

[2] = target: T1, human α4β1δ receptors in δ-HEK cells; experiment: Whole-cell patch-clamp electrophysiology, concentration-response; type: cell-based
Source text: To express recombinant GABAΑ receptors human α1, α2, α3, α5, α6, β2, γ2 (pcDNA3.1/Zeo) and α4, β1 (pUNIV)[26] subunit cDNA were transiently transfected into either δ-HEK or HEK background cells. δ-HEK cells were transfected with α- and β-subunits in a 1:1 ration whereas HEK background cells were transfected with α-, β- and γ-subunits in a 1:1:2 ratio. Human BGT1 (pcDNA5/FRT)[43] was transiently transfected into the δ-HEK cell line. δ-HEK cells transfected for whole-cell patch-clamp recordings were co-transfected with green fluorescent protein (GFP) as well as α- and β-subunits in a 0.5:1:1 ratio (0.8 μg + 1.6 μg + 1.6 μg in a 6 cm dish) in order to identify transfected cells. The transfection was carried out using Polyfect as transfection reagent according to the manufactures protocol expect for using half the recommended volume of Polyfect.

[3] = tested on: α3−5 containing GABAΑ receptors; experiment: FMP assay, α3−5 containing receptors (summary); type: cell-based, human; conditions: range over subtypes; read-out: potencies (IC50) at α3−5 containing receptors
Description: HEK293 cells were maintained in DMEM containing GlutaMAX-I, supplemented with 10% FBS and 1% penicillin-streptomycin and incubated at 37 °C and a humidity of 5% CO2. For expression of δ-containing GABAΑ receptors, a HEK293 Flp-In^ΤΜ cell line stably expressing the human GABAΑ δ-subunits (referred to as δ-HEK) was used and the γ-containing subtypes was expressed in a background HEK293 Flp-In^ΤΜ cell line stably expressing the G-protein coupled peptide receptor NPBWR2 (referred to as HEK background)[26], both positively selected for using 200 μg/mL hygromycin B. α1β2γ2 receptors were stably expressed in a HEK293 cell line maintained as above but with no selection (gift from Marianne L. Jensen, Neurosearch). […]
The FMP assay was performed as previously described with a few modifications. […] Data was obtained as changes in fluorescence units (∆RFU) by measuring emission at 560 nm caused by excitation at 530 nm. […]
Data obtained in the FMP assay are given as relative changes in fluorescence units (ΔRFU) by subtracting the average of the baseline fluorescence signal from the peak fluorescence signal after compound addition. […]

[4] = 100 μM GABA, 3 nM 018, biexponential fit
[5] = 100 μM GABA, 10 nM 018, biexponential fit
[6] = 100 μM GABA, 30 nM 018, biexponential fit
[7] = […] GABA, 10 nM 018, biexponential fit
[8] = […] GABA, 30 nM 018, biexponential fit, n = 5

NCCCC(=O)O [GABA]
t1 (ms), activation time constant ([1]; 100 μM GABA alone (0 nM 018), monoexponential fit, median): 35.0 ms
τ (ms), activation time constant ([1]; […] GABA alone (0 nM 018), monoexponential fit, median [25–75% quartiles]): 174 [148;186]^a ms

O=C(Nc1cccc(C(=O)N2CCC3(CCNCC3)CC2)c1)c1cccs1 [compound 018, N-(3-(3,9-diazaspiro[5.5]undecane-3-carbonyl)phenyl)thiophene-2-carboxamide]
IC50 [2]: 10.8 nM
potency in patch-clamp relative to FMP assay ([2]; α4β1δ): 9 times
t1 ([1]; 100 μM GABA, 0.1 nM 018, monoexponential fit): 37.1 ms
%A1 ([1]; 100 μM GABA, 3 nM 018): 81.5%
t1 [1, 4]: 29.6 ms
t2 [1, 4]: 1070 ms
%A1 ([1]; 100 μM GABA, 10 nM 018): 33.9%
t1 [1, 5]: 41.4 ms
t2 [1, 5]: 2170 ms
%A1 ([1]; 100 μM GABA, 30 nM 018): 7.5%
t1 [1, 6]: 34.0 ms
t2 [1, 6]: 3685 ms
τ1 (ms) ([1]; […] GABA, 0.1 nM 018, monoexponential fit): 119 [101;167]^a ms
τ2 (ms) ([1]; […] GABA, 3 nM 018, biexponential fit): 1090 [960;2180] — ms
τ1 (ms) ([1]; […] GABA, 3 nM 018, biexponential fit, n = 7): 147 [115;183] ms
%A1 ([1]; […] GABA, 3 nM 018, fast component share of total current): 83.8 — %
τ1 (ms) ([1]; […] GABA, 3 nM 018, monoexponential fit, n = 3): 123 [73.3;273] ms
%A1 ([1]; […] GABA, 10 nM 018): 39.6%
τ1 (ms) [1, 7]: 107 [57.5;180] ms
τ2 (ms) [1, 7]: 2170 [1970;3010] ms
%A1 ([1]; […] GABA, 30 nM 018): 8.3 — %
τ1 [1, 8]: 68.0 ms
τ1 (ms) [1, 8]: 68.0 [56.3;106] — ms
τ2 (ms) [1, 8]: 3780 [3160;4710] ms
τ2 (ms) ([1]; […] GABA, 30 nM 018, monoexponential fit, n = 3): 4270 [4140;4920] ms
τ2 (ms) ([1]; […] GABA, 1000 nM 018, monoexponential fit): 3780 [3330;5350]^a ms
IC50 [3]: 37 to 88 nM
